Target: T1, HCV protease (Hepatitis C virus genotype 1a, UniProt P27958)
T1 construct: purchased ProteinOne
Assay: biochemical
Method: The HCV protease assay kits were purchased from ProteinOne and experiments were performed according to the manual provided.
Assay solution (100 μL) was added to each well by a multichannel pipette (Eppendorf Research) and the fluorescence signals were recorded immediately.
Fluorescence signals were recorded at 90 min. The experiment was repeated in triplicate. IC50 was calculated via nonlinear regression using the software package GraphPad Prism 5.

T1 sequence (P27958 1027-1208, other chains not shown): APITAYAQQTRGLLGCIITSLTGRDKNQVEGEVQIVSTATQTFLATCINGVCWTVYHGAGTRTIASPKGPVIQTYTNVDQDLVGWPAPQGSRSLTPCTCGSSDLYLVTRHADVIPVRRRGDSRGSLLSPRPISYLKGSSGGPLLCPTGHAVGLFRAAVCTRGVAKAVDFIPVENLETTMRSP

CC(C)(C)OC(=O)CC[C@@H](CC(=O)C(=O)NCc1ccc(Cl)cc1)NC(=O)C[C@@H](NC(=O)C[C@@H](NC(=O)C[C@@H](NC(=O)CCC(=O)O)C1CCCCC1)C1CCCCC1)C1CCCCC1 [I^3-M^5-M^5-M^5-T^4]
IC50: 1000 nM
